Assays:
[1] = molecular target: T1, SMARCA4-HiBiT HeLa cells (protein which is expressed from the SMARCA4 gene) (Homo sapiens, UniProt P51532); assay: SMARCA4 degradation assay (HiBiT-fusion HeLa cell line, 24 h, luminescence); type: cell-based
T1 construct: protein which is expressed from the SMARCA2 and SMARCA4 genes; host or cells: HeLa (SMARCA4-HiBiT engineered line)
In short: (§1)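 SMARCA2- or SMARCA4-HiBiT HeLa cells seeded overnight at 37° C, then given compound as a 10-point dilution (typically 10 μM to 300 pM) for 24 h at 37° C. Protein level read by HiBiT lytic detection luminescence; DC50 from dose-response curves; degradation also scored at 1 μM.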

[2] = molecular target: T2, SMARCA2-HiBiT HeLa cells (protein which is expressed from the SMARCA2 gene) (Homo sapiens, UniProt P51531); assay: SMARCA2 degradation assay (HiBiT-fusion HeLa cell line, 24 h, luminescence); type: cell-based
T2 construct: protein which is expressed from the SMARCA2 and SMARCA4 genes; host or cells: HeLa (SMARCA2-HiBiT engineered line)
In short: as §1

T2 sequence (P51531 whole entry, the tested form may be a part): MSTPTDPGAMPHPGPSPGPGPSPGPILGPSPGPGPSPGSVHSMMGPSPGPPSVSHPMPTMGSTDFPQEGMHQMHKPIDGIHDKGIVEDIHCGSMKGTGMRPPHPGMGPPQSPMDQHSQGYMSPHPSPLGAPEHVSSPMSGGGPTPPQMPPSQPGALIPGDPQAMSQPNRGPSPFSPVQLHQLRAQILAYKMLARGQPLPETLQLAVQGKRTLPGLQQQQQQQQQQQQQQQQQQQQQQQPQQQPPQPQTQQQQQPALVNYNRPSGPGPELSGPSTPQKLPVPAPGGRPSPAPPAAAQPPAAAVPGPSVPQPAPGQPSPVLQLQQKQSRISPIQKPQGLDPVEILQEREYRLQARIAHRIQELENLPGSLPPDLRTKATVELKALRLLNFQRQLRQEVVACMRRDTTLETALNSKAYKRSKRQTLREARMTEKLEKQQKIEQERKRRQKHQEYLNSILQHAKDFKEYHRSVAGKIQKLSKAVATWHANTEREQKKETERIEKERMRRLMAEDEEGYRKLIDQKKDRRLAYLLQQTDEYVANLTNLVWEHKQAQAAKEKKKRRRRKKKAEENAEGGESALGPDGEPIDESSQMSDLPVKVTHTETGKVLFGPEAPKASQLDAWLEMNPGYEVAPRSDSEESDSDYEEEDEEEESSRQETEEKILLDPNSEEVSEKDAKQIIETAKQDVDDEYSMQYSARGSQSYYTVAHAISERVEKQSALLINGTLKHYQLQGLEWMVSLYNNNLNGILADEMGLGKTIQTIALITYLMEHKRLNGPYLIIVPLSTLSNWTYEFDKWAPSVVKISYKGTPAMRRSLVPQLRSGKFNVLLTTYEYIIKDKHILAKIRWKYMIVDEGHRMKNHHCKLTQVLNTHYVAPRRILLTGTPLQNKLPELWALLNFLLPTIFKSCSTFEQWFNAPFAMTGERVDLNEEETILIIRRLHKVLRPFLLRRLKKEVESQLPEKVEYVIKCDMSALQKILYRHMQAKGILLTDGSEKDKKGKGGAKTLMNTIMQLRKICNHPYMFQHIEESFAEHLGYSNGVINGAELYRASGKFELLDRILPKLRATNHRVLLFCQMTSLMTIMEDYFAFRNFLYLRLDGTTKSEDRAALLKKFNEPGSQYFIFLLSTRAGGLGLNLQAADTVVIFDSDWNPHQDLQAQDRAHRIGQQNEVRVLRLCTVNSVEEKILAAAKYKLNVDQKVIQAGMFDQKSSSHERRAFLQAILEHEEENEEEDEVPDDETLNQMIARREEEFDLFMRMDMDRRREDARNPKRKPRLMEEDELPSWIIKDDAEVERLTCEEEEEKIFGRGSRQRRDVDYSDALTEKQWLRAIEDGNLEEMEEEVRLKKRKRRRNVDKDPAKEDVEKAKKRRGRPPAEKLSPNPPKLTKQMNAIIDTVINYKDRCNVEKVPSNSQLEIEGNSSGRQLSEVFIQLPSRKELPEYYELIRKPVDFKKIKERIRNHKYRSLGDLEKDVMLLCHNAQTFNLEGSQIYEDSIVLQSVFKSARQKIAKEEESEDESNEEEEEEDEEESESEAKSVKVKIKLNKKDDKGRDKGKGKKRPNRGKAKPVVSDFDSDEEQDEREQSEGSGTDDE
T1 sequence (P51532 whole entry, the tested form may be a part): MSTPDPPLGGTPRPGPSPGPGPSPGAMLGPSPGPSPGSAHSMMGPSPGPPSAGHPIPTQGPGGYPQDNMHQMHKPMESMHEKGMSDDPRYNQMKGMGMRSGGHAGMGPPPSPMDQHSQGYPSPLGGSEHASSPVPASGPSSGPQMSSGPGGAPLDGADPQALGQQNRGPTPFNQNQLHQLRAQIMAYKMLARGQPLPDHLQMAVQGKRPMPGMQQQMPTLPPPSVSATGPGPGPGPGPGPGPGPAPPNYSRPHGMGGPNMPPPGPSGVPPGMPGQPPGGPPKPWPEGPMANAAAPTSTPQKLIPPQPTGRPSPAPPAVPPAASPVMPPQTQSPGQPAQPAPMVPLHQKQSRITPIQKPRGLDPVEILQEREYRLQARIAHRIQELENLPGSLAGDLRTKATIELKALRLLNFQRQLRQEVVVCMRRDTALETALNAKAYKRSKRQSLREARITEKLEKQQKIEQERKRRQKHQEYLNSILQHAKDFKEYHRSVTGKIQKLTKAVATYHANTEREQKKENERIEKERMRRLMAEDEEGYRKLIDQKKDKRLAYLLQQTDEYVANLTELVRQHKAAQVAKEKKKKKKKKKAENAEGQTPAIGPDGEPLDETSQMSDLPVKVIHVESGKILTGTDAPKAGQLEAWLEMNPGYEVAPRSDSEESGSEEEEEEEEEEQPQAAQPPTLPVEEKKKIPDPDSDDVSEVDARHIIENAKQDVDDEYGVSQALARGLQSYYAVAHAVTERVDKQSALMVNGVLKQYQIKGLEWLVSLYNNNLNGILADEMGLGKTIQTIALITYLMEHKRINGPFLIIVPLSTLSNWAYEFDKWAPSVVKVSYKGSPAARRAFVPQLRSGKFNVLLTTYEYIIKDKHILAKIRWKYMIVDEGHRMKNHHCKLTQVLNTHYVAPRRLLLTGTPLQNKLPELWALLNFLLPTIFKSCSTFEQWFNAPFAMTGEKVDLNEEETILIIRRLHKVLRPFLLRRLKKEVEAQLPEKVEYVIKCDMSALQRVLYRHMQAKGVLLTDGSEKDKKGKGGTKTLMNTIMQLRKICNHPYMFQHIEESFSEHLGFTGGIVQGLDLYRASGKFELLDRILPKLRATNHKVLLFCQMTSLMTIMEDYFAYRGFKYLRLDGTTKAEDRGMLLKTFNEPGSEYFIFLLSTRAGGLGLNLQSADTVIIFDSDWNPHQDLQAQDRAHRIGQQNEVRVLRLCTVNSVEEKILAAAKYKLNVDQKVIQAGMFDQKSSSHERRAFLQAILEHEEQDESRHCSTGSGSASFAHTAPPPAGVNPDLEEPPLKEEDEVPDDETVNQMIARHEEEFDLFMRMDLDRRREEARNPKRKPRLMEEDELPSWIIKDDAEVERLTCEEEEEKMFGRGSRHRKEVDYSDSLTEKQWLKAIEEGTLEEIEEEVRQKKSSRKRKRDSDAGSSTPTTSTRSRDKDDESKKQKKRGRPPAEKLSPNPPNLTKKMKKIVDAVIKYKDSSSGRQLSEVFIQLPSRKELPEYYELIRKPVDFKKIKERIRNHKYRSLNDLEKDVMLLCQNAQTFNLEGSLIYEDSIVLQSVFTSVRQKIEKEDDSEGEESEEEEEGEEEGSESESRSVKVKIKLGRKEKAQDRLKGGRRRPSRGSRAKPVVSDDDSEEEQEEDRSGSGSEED

| Structure (SMILES) | DC50 [1] [nM] | inhibition at 1 µM ([1]; @ 1 μM) [%] | DC50 [2] [nM] | SMARCA2 % Degradation @ 1 μM ([2]; @ 1 μM) | inhibition at 1 µM ([1]; 1 μM) [%] | SMARCA2 % Degradation @ 1 μM ([2]; 1 μM) |
| --- | --- | --- | --- | --- | --- | --- |
| Nc1nnc(-c2ccccc2O)cc1N1CCN(c2ccnc(C#CCNC(=O)c3cnn4cccnc34)n2)CC1 [Compound P-71, N-(3-(4-(4-(3-amino-6-(2-hydroxyphenyl)pyridazin-4-yl)piperazin-1-yl)pyrimidin-2-yl)prop-2-yn-1-yl)pyrazolo[1,5-a]pyrimidine-3-carboxamide] | 50 to 500 | 30 to 70 | 50 to 500 | ++ (++=30-70%) | – | – |
| CC(C)(C)OC(=O)NCC#Cc1nccc(N2CCCN(c3cc(-c4ccccc4O)nnc3N)CCC2)n1 [Compound P-304, 4-(5-{2-[3-(tert-butoxycarbonylamino)-1-propynyl]-4-pyrimidinyl}-1,5-diazocan-1-yl)-6-(o-hydroxyphenyl)-3-pyridazinamine] | 50 to 500 | – | 50 to 500 | +++ (+++=>70%) | – | – |
| C[C@@H]1CCN(c2cc(-c3ccccc3O)nnc2N)CCN1c1ccnc(/C=C/CN(C)CCF)n1 [Compound P-164] | < 50 | 30 to 70 | < 50 | +++ (+++=>70%) | – | – |
| Nc1nnc(-c2ccccc2O)cc1N1CCCN(c2ccnc(C#CC34CCCN3CCC4)n2)CC1 [Compound P-355, 0-[6-amino-5-(4-{2-[2-(hexahydro-1H-pyrrolizin-7a-yl)ethynyl]-4-pyrimidinyl}-1,4-diazepan-1-yl)-3-pyridazinyl]phenol] | 50 to 500 | > 70 | 50 to 500 | +++ (+++=>70%) | – | – |
| N#CCNCC#Cc1nccc(N2CCCN(c3cc(-c4ccccc4O)nnc3N)CC2)n1 [Compound P-255, [3-(4-{4-[3-amino-6-(o-hydroxyphenyl)-4-pyridaziny1]-1,4-diazepan-1-yl}-2-pyrimidinyl)-2-propynylamino]acetonitrile] | 50 to 500 | 30 to 70 | 50 to 500 | ++ (++=30-70%) | – | – |
| Nc1nnc(-c2ccccc2O)cc1N1CCC2(CCCN(c3ccnc(C#CCO)n3)C2)CC1 [Compound P-123, 2-(6-amino-5-(2-(2-(3-hydroxyprop-1-yn-1-yl)pyrimidin-4-yl)-2,9-diazaspiro[5.5]undecan-9-yl)pyridazin-3-yl)phenol] | < 50 | 30 to 70 | 50 to 500 | ++ (++=30-70%) | – | – |
| C[C@@H]1CCN(c2cc(-c3ccccc3O)nnc2N)CCN1c1ccc(C#N)c(C#CCN2CC3CC2C3)n1 [Compound P-393, 6-{(R)-4-[3-amino-6-(o-hydroxyphenyl)-4-pyridazinyl]-7-methyl-1,4-diazepan-1-yl}-2-{3-(2-azabicyclo[2.1.1]hex-2-yl)-1-propynyl} nicotinonitrile] | < 50 | – | < 50 | – | 30 to 70 | +++ (+++=>70%) |
| C[C@@H]1CCN(c2cc(-c3ccccc3O)nnc2N)CCN1c1ccnc(C#CCn2cncn2)n1 [Compound P-333, 0-{5-[(R)-5-methyl-4-{2-[3-(1H-1,2,4-triazol-1-yl)-1-propynyl]-4-pyrimidinyl}-1,4-diazepan-1-y1]-6-amino-3-pyridazinyl} phenol] | 50 to 500 | < 30 | 50 to 500 | ++ (++=30-70%) | – | – |
| Nc1nnc(-c2ccccc2O)cc1N1CCN(c2ccnc(C#CCNC(=O)c3cccnn3)n2)CC1 [Compound P-5, N-[3-(4-{4-[3-amino-6-(2-hydroxyphenyl)pyridazin-4-yl]piperazin-1-yl}pyrimidin-2-yl)prop-2-yn-1-yl]pyridazine-3-carboxamide] | 50 to 500 | < 30 | 50 to 500 | ++ (++=30-70%) | – | – |
| Nc1nnc(-c2ccccc2O)cc1N1CC2CCC(C1)N2c1ccnc(C#CCNC(=O)c2cccnc2)n1 [Compound P-241, N-[3-(4-{3-[3-amino-6-(o-hydroxyphenyl)-4-pyridazinyl]-3,8-diazabicyclo[3.2.1]oct-8-yl}-2-pyrimidinyl)-2-propynyl]nicotinamide] | 50 to 500 | 30 to 70 | 50 to 500 | ++ (++=30-70%) | – | – |
| Cc1nc(C)n(CC#Cc2nccc(N3CCN(c4cc(-c5ccccc5O)nnc4N)CC[C@H]3C)n2)c1C [Compound P-185, o-{5-[(R)-5-methyl-4-{2-[3-(2,4,5-trimethyl-1-imidazolyl)-1-propynyl]-4-pyrimidinyl}-1,4-diazepan-1-y1]-6-amino-3-pyridaziny1} phenol] | 50 to 500 | > 70 | 50 to 500 | +++ (+++=>70%) | – | – |
| CN(CC#Cc1nccc(N2CCCN(c3cc(-c4ccccc4O)nnc3N)CC2)n1)C(=O)c1cc2ncccn2n1 [Compound P-24, N-(3-(4-(4-(3-amino-6-(2-hydroxyphenyl)pyridazin-4-yl)-1,4-diazepan-1-yl)pyrimidin-2-yl)prop-2-yn-1-yl)-N-methylpyrazolo[1,5-a]pyrimidine-2-carboxamide] | < 50 | > 70 | < 50 | +++ (+++=>70%) | – | – |
| C[C@@H]1CCN(c2cc(-c3ccccc3O)nnc2N)CCN1c1nc(C#CCN2CC3CC2C3)ncc1F [Compound P-189, o-{5-[(R)-4-(2-{3-(2-azabicyclo[2.1.1]hex-2-yl)-1-propynyl}-5-fluoro-4-pyrimidinyl)-5-methyl-1,4-diazepan-1-yl]-6-amino-3-pyridazinyl}phenol] | < 50 | 30 to 70 | < 50 | ++ (++=30-70%) | – | – |
| C[C@@H]1CCN(c2cc(-c3ccccc3O)nnc2N)CCN1c1ccnc(C#CC2CN(CC(F)F)C2)n1 [Compound P-174, o-{5-[(R)-4-(2-{2-[1-(2,2-difluoroethyl)-3-azetidinyl]ethynyl}-4-pyrimidinyl)-5-methyl-1,4-diazepan-1-y1]-6-amino-3-pyridazinyl}phenol] | 50 to 500 | 30 to 70 | 50 to 500 | +++ (+++=>70%) | – | – |
| C[C@@H]1CCN(c2cc(-c3ccccc3O)nnc2N)CCN1c1ccnc(C#CCN2CC3(COC3)C2)n1 [Compound P-213, o-{5-[(R)-5-methyl-4-(2-{3-(2-oxa-6-aza-6-spiro[3.3]heptyl)-1-propynyl}-4-pyrimidinyl)-1,4-diazepan-1-yl]-6-amino-3-pyridazinyl}phenol] | > 5000 | < 30 | 50 to 500 | ++ (++=30-70%) | – | – |
| Nc1nnc(-c2ccccc2O)cc1N1CCCN(c2ccnc(C#CCOc3ncco3)n2)CC1 [Compound P-128, 2-(6-amino-5-(4-(2-(3-(oxazol-2-yloxy)prop-1-yn-1-yl)pyrimidin-4-yl)-1,4-diazepan-1-yl)pyridazin-3-yl)phenol] | 50 to 500 | 30 to 70 | < 50 | +++ (+++=>70%) | – | – |
| C[C@@H]1CCN(c2cc(-c3ccccc3O)nnc2N)CCN1c1ccnc(C#CCN2CCC(F)(F)C2)n1 [Compound P-243, o-{5-[(R)-4-{2-[3-(3,3-difluoro-1-pyrrolidinyl)-1-propynyl]-4-pyrimidinyl}-5-methyl-1,4-diazepan-1-yl]-6-amino-3-pyridazinyl} phenol] | 50 to 500 | 30 to 70 | 50 to 500 | ++ (++=30-70%) | – | – |

From patent US20260265238A1, “COMPOUNDS AND PHARMACEUTICAL COMPOSITIONS THAT DEGRADE SWI/SNF-RELATED MATRIX-ASSOCIATED ACTIN-DEPENDENT REGULATOR OF CHROMATIN SUBFAMILY A” (Plexium, Inc., priority 2023, published 2026)
